Results as given in ChEMBL document CHEMBL3868619, “Synthesis and biological assessment of novel N-(hydroxy/methoxy)alkyl β-enaminone curcuminoids” (Bioorg Med Chem Lett, 2016).
≈ marks a conversion by molar mass, not a printed value. Calls of active or inactive are those of the source. The rule behind the calls is not given here.

Columns and labels:
[1] = Solubility of the compound in dimethyl sulfoxide; type: physicochemical
[2] = Cytotoxicity against human EAhy926 cells assessed as cell viability at 100 uM after 48 hrs by MTT assay relative to control; type: toxicity, cell-based, EA.hy 926; conditions: EA.hy926 cells, read-out: Activity
[3] = Solubility of the compound in ethanol; type: physicochemical
[4] = Solubility of the compound in ethyl acetate; type: physicochemical
[5] = Cytotoxicity against CHOK1 cells assessed as decrease in cell viability after 48 hrs by MTT assay; type: toxicity, cell-based, Cricetulus griseus; conditions: Chinese hamster, CHO-K1 cells
[6] = Solubility of the compound in acetone; type: physicochemical
[7] = Aqueous solubility of the compound in sodium phosphate buffer at pH 6.8 after 90 mins by shake flask method; type: physicochemical
[8] = Cytotoxicity against human EAhy926 cells assessed as decrease in cell viability after 48 hrs by MTT assay; type: toxicity, cell-based, EA.hy 926; conditions: EA.hy926 cells
[9] = Induction of ROS generation in CHOK1 cells at 10 uM using DCFH-DA by fluorescence assay relative to control; type: cell-based, Cricetulus griseus; conditions: chinese hamster, cho-k1, 10 µM
HepG2 [10] = test: Induction of ROS generation in human HepG2 cells at 1 uM using DCFH-DA by fluorescence assay relative to control; type: functional
Caco-2 [11] = test: Induction of ROS generation in human Caco2 cells at 1 uM using DCFH-DA by fluorescence assay relative to control; type: functional
HepG2 [12] = test: Induction of ROS generation in human HepG2 cells at 10 uM using DCFH-DA by fluorescence assay relative to control; type: functional
EA.hy 926 [13] = test: Induction of ROS generation in human EAhy926 cells at 10 uM using DCFH-DA by fluorescence assay relative to control; type: functional
[14] = Cytotoxicity against human Caco2 cells assessed as decrease in cell viability after 48 hrs by MTT assay; type: functional, cell-based; conditions: Caco-2, 48 h
[15] = Cytotoxicity against human HT-29 cells assessed as decrease in cell viability after 48 hrs by MTT assay; type: functional, cell-based; conditions: HT-29, 48 h
HT-29 [16] = test: Induction of ROS generation in human HT-29 cells at 10 uM using DCFH-DA by fluorescence assay relative to control; type: functional
[17] = Aqueous solubility of the compound in sodium phosphate buffer at pH 6.8 after 24 hrs by shake flask method; type: physicochemical
[18] = Cytotoxicity against human HepG2 cells assessed as decrease in cell viability after 48 hrs by MTT assay; type: functional, cell-based; conditions: HepG2, 48 h
[19] = Solubility of the compound in dimethylformamide; type: physicochemical
Caco-2 [20] = test: Induction of ROS generation in human Caco2 cells at 10 uM using DCFH-DA by fluorescence assay relative to control; type: functional
[21] = Solubility of the compound in methanol; type: physicochemical
EA.hy 926 [22] = test: Induction of ROS generation in human EAhy926 cells at 1 uM using DCFH-DA by fluorescence assay relative to control; type: functional
[23] = Induction of ROS generation in CHOK1 cells at 1 uM using DCFH-DA by fluorescence assay relative to control; type: cell-based, Cricetulus griseus; conditions: chinese hamster, cho-k1, 1 µM
[24] = Antioxidant activity assessed as DPPH radical scavenging activity after 30 mins by spectrophotometric analysis; type: functional
[25] = Solubility of the compound in 2-methyl-THF; type: physicochemical
HT-29 [26] = test: Induction of ROS generation in human HT-29 cells at 1 uM using DCFH-DA by fluorescence assay relative to control; type: functional
[27] = Chemical stability of the compound sodium phosphate buffer at pH 6.8 after 24 hrs by LC-MS analysis; type: physicochemical; conditions: pH 6.8, 24 h
HepG2 [28] = test: Cytotoxicity against human HepG2 cells assessed as change in cell morphology after 48 hrs; type: functional, cell-based

solubility [1] | solubility [3] | solubility [4] | solubility [6] | solubility thermodynamic at 1.5 h [7] [µM] | Activity [9] [%] | solubility thermodynamic at 24 h [17] [µM] | solubility [19] | solubility [21] | Structure (SMILES) | IC50 at 48 h [5] [µM] | IC50 at 48 h [8] [µM] | Activity (HepG2 [10]) [%] | Activity (Caco-2 [11]) [%] | Activity (HepG2 [12]) [%] | Activity (EA.hy 926 [13]) [%] | IC50 [14] [µM] | IC50 [15] [µM] | Activity (HT-29 [16]) [%] | IC50 [18] [µM] | Activity (Caco-2 [20]) [%] | further results
Soluble | Soluble | Insoluble | Insoluble | 16.7 (≈ 7.1 µg/mL) | 84.4 | 12.7 (≈ 5.4 µg/mL) | Soluble | Soluble | COCCNC(=C\C(=O)/C=C/c1ccc(O)c(OC)c1)/C=C/c1ccc(O)c(OC)c1 | 63 | ≥ 100 | 83.8 | 105 | 66.6 | 121.3 | > 100 | > 100 | 92.3 | > 100 | 75.6 | viability at 48 h, 100 µM [2]: 50.9%; Activity (EA.hy 926 [22]): 126.2%; Activity [23]: 94%; EC50 [24]: 27.3 µM; solubility [25]: Insoluble; Activity (HT-29 [26]): 86.5%; Stability [27]: Stable
 |  |  |  |  |  |  |  |  | COc1cccc2c1C(=O)c1c(O)c3c(c(O)c1C2=O)C[C@@](O)(C(=O)CO)C[C@@H]3O[C@H]1C[C@H](N)[C@H](O)[C@H](C)O1 [DOXORUBICIN] | 4.2 | 4.2 |  |  |  |  | 9.4 | 7.4 |  | > 75 |  | Activity (HepG2 [28]): Active
Soluble | Soluble | Insoluble | Insoluble | 25.4 (≈ 10.8 µg/mL) | 89.9 | 56.3 (≈ 24 µg/mL) | Soluble | Soluble | COc1cc(/C=C/C(=O)/C=C(/C=C/c2ccc(O)c(OC)c2)NCCCO)ccc1O | 88.5 | > 100 | 90 | 93.4 | 101.5 | 102.2 | 75.7 | > 100 | 98.8 | > 100 | 91 | Activity (EA.hy 926 [22]): 114.3%; Activity [23]: 90.4%; EC50 [24]: 27.6 µM; solubility [25]: Insoluble; Activity (HT-29 [26]): 98.8%; Stability [27]: Stable
